Measured values published in patent US10596151B2, “Methods and pharmaceutical compositions for reducing arterial stiffness with a combination of a therapeutic agent blocking the angiotensin receptor and a therapeutic agent inhibiting the NEP enzyme” (Novartis AG, priority 2015, dated 2020).

Key:
Type in all cases: in vivo, human
[1] = tested on: elderly patients (≥60 years) with essential hypertension; experiment: […] study: 24-hour ambulatory brachial and central blood pressure (Mobil-O-Graph)
From the text: (§1) The study enrolled patient from 5 Dec. 2012 to 8 Apr. 2015.
The 24-hour maCAP and maPWA will be monitored using the oscillometric device, Mobil-0-Graph (IEM, Stolberg, Germany) with integrated ARC solver algorithms (Austrian Institute of Technology, Vienna, Austria). The traditional Mobil-O-Graph ambulatory blood pressure monitoring (ABPM) device has been available for more than a decade and through several product generations.24-27 The actual blood pressure measuring unit was validated according to the British Hypertension Society (BHS) and the European Society of Hypertension (ESH) recommendations.24,26 The method equipped with a GTF to derive aortic pressure waveforms28 is based on brachial readings acquired in the course of the conventional pressure measurement at diastolic level.
During the signal acquisition procedure, the received raw signals are separated into single waves and checked for their plausibility by means of extreme values and corresponding wavelengths using a cross-correlation approach. Poor waveforms are removed from further processing. After applying the GTF to each single waveform, the procedure is repeated.
With respect to legal issues, the Mobil-O-Graph maPWA monitor with integrated ARC solver algorithms holds approvals from CE, FDA, and JPAL (amongst others).

[2] = tested on: elderly patients (≥60 years) with essential hypertension; experiment: […] study: central aortic pressures (CASP, CPP/CAPP, central DBP, central MAP) by SphygmoCor X-CEL; details: for LSM change from baseline (SE) in mean CPP at Week 12 endpoint / LSM change from baseline (SE) in mean CASP at Week 12 endpoint / LSM change from baseline (SE) in mean CASP at Week 52 endpoint / LSM change from baseline (SE) in mean CPP at Week 52 endpoint: FAS; for LSM change from baseline (SE) in mean CPP at Week 12 endpoint / LSM change from baseline (SE) in mean CASP at Week 12 endpoint: monotherapy; for LSM change from baseline (SE) in mean CASP at Week 12 endpoint: LCZ696 400 mg/day, olmesartan 40 mg/day; for LSM change from baseline (SE) in mean CASP at Week 52 endpoint / LSM change from baseline (SE) in mean CPP at Week 52 endpoint: Week 52 endpoint (LOCF), add-on amlodipine/HCTZ allowed
Description: The term CAPP refers to central aortic PP. In the context of the present invention CAPP is measured with the SphygmoCor X-CEL System (AtCor Medical, Sydney, Australia) to non-invasively derive the ascending aortic pressure waveform from the brachial waveform using a validated generalised transfer function (GTF). A properly sized BP cuff is linked to a computer and software and the CASP, CAPP, augmentation pressure, and Alx are determined from the analysis of waveform by the system software. […]
The primary and secondary endpoints are changes from baseline in central aortic systolic pressure (CASP) and central aortic PP (CAPP) at week 12, respectively. Other secondary endpoints are the changes in CASP and CAPP at week 52. […] The primary variable will be analysed using a two-way analysis of covariance.
The SphygmoCor X-CEL System (AtCor Medical, Sydney, Australia) is being used to non-invasively derive the ascending aortic pressure waveform from the brachial waveform using a validated generalised transfer function (GTF).22 A properly sized BP cuff is linked to a computer and software and the CASP, CAPP, augmentation pressure, and Alx are determined from the analysis of waveform by the system software.
A sample size of 183 completers per group is targeted, which is calculated based on the primary efficacy variable, change from baseline in mean CASP at 12 weeks, assuming a standard deviation of 19 mm Hg. […] Assuming a 15% dropout rate, the total targeted sample size to be randomised is 432 patients (216 per group). The primary variable at the Week 12 endpoint will be analysed using a two-way analysis of covariance (ANCOVA), with treatment and region as factors and the baseline as a covariate. Mean CAPP at the Week 12 endpoint will be analysed using the same type of ANCOVA model used for the primary efficacy analysis. A two-sided significance at 0.05 level will be used for this analysis and a 95% confidence interval for the treatment difference will be provided.

[3] = tested on: elderly patients (≥60 years) with essential hypertension; experiment: […] study: carotid-femoral aortic pulse wave velocity (SphygmoCor X-CEL); details: pulse wave velocity
Description: In the context of the present invention PWV is measured as aortic PWV=aPWV. One system to measure aPWV is the SphygmoCor X-CEL system which measures the carotid-femoral aPWV, as the speed of the arterial pressure waveform as it travels through the descending aorta to the femoral artery, which is detected from simultaneously measured carotid and femoral arterial pulses. The carotid pulse is detected by applanation tonometry using a high-fidelity pressure transducer (Millar Instruments, Houston, Tex.), while the femoral pulse is detected using a partially inflated blood pressure cuff wrapped around the upper thigh. The distance travelled by the pulse wave is captured by making physical measurements on the body surface according to the manufacturer's recommendations. […] [Butlin M, Qasem A, Avolio A P. Estimation of central aortic pressure waveform features derived from the brachial cuff volume displacement waveform. Conf Proc IEEE Eng Med Biol Soc 2012; 2012:2591-4]
as §1
The SphygmoCor X-CEL system also measures the carotid-femoral aPWV, as the speed of the arterial pressure waveform as it travels through the descending aorta to the femoral artery, which is detected from simultaneously measured carotid and femoral arterial pulses. The carotid pulse is detected by applanation tonometry using a high-fidelity pressure transducer (Millar Instruments, Houston, Tex.), while the femoral pulse is detected using a partially inflated blood pressure cuff wrapped around the upper thigh. The distance traveled by the pulse wave is captured by making physical measurements on the body surface according to the manufacturer's recommendations.

Structure (SMILES): CCCc1nc(C(C)(C)O)c(C(=O)O)n1Cc1ccc(-c2ccccc2-c2nnn[nH]2)cc1 [Olmesartan, reference compound]
- Change from baseline to 12 weeks, macDBP ([1]; mean ambulatory central diastolic BP, 12 weeks, mean): −5.8 mmHg
- Change from baseline to 52 weeks, macDBP ([1]; mean ambulatory central diastolic BP, 52 weeks, mean): −9.1 mmHg
- Change from baseline to 12 weeks, macMAP ([1]; mean ambulatory central mean arterial pressure, 12 weeks, mean): −6.75 mmHg
- Change from baseline to 52 weeks, macMAP ([1]; mean ambulatory central mean arterial pressure, 52 weeks, mean): −10.6 mmHg
- Change from baseline to 12 weeks, macPP ([1]; mean ambulatory central pulse pressure, 12 weeks, mean): −2.9 mmHg
- Change from baseline to 52 weeks, macPP ([1]; mean ambulatory central pulse pressure, 52 weeks, mean): −4.6 mmHg
- Change from baseline to 12 weeks, macSBP ([1]; mean ambulatory central systolic BP, 12 weeks): −8.7 mmHg
- Change from baseline to 52 weeks, macSBP ([1]; mean ambulatory central systolic BP, 52 weeks): −13.7 mmHg
- Change from baseline to 12 weeks, maDBP ([1]; mean ambulatory diastolic BP, 12 weeks): −5.5 mmHg
- Change from baseline to 52 weeks, maDBP ([1]; mean ambulatory diastolic BP, 52 weeks): −8.4 mmHg
- Change from baseline to 12 weeks, maMAP ([1]; mean ambulatory mean arterial pressure, 12 weeks, mean): −7.1 mmHg
- Change from baseline to 52 weeks, maMAP ([1]; mean ambulatory mean arterial pressure, 52 weeks, mean): −11.1 mmHg
- Change from baseline to 12 weeks, maPP ([1]; mean ambulatory pulse pressure, 12 weeks): −3.7 mmHg
- Change from baseline to 52 weeks, maPP ([1]; mean ambulatory pulse pressure, 52 weeks): −5.9 mmHg
- Change from baseline to 12 weeks, maSBP ([1]; mean ambulatory systolic BP, 12 weeks): −9.1 mmHg
- Change from baseline to 52 weeks, maSBP ([1]; mean ambulatory systolic BP, 52 weeks): −14.3 mmHg
- LSM change from baseline (SE) in mean CPP at Week 12 endpoint [2]: −3.96 (0.69) mmHg
- LSM change from baseline (SE) in mean CASP at Week 12 endpoint [2]: −8.90 (1.01) mmHg
- LSM change from baseline (SE) in mean CASP at Week 12 endpoint ([2]; listed as olmesartan): −8.90 mmHg
- LSM change from baseline (SE) in mean CPP at Week 12 endpoint ([2]; listed as olmesartan): −3.96 mmHg
- LSM change from baseline (SE) in mean CASP at Week 52 endpoint [2]: −14.70 (0.96) mmHg
- LSM change from baseline (SE) in mean CPP at Week 52 endpoint [2]: −6.65 (0.69) mmHg
- LSM change from baseline (SE) in mean CASP at Week 52 endpoint ([2]; listed as olmesartan): −14.70 mmHg
- LSM change from baseline (SE) in mean CPP at Week 52 endpoint ([2]; listed as olmesartan): −6.65 mmHg
- Change from baseline to 12 weeks, mscDBP ([2]; mean sitting central diastolic BP, 12 weeks): −5.0 mmHg
- Change from baseline to 52 weeks, mscDBP ([2]; mean sitting central diastolic BP, 52 weeks): −8.1 mmHg
- Change from baseline to 12 weeks, mscMAP ([2]; mean sitting central mean arterial pressure, 12 weeks, mean): −6.7 mmHg
- Change from baseline to 52 weeks, mscMAP ([2]; mean sitting central mean arterial pressure, 52 weeks, mean): −9.1 mmHg
- Change from baseline to 12 weeks, PWV ([3]; Week 12 endpoint, n = 192 LCZ696, n = 196 olmesartan): −0.6
- Change from baseline to 52 weeks, PWV ([3]; week 52 endpoint, n = 199 both treatments): −0.8
